Legend:
[1] = molecular target: T1, PSMA (Homo sapiens, UniProt Q04609); assay: PSMA affinity (IC50), competition with ([125I]I-BA)KuE on LNCaP cells; details: natLu complexes; LNCaP cells 150000 cells/well, ([125I]I-BA)KuE c=0.2 nM, 1 h, 4 °C, HBSS+1% BSA; mean±SD, n=3; read-out: IC50 (binding affinity to PSMA)
T1 construct: PSMA-positive LNCAP cells (300265; Cell Lines Service, Eppelheim, Germany); host or cells: LNCaP cells
Description: PSMA-positive LNCAP cells (300265; Cell Lines Service, Eppelheim, Germany) were cultivated in Dulbecco modified Eagle medium/Nutrition Mixture F-12 with Glutamax (1:1) (DMEM-F12, Biochrom, Berlin, Germany) supplemented with fetal bovine serum (10%, FBS Zellkultur, Berlin, Germany) and kept at 37° C. in a humidified CO2 atmosphere (5%). A mixture of trypsin and EDTA (0.05%, 0.02%) in PBS (Biochrom) was used in order to harvest cells. Cells were counted with a Neubauer hemocytometer (Paul Marienfeld, Lauda-Königshofen, Germany).
In the case of metal-complexed ligands, the crude reaction mixture was diluted analogously, without further purification. Cells were harvested 24±2 hours prior to the experiment and seeded in 24-well plates (1.5×10^5 cells in 1 mL/well). After removal of the culture medium, the cells were carefully washed with 500 μL of HBSS, supplemented with 1% bovine serum albumin (BSA, Biowest, Nuaillé, France) and left 15 min on ice for equilibration in 200 μL HBSS (1% BSA). Next, 25 μL per well of solutions, containing either HBSS (1% BSA, control) or the respective ligand in increasing concentration ([…] in HBSS) were added with subsequent addition of 25 μL of [^125I]-BA-KuE (2.0 nM) in HBSS (1% BSA). After incubation on ice for 60 min, the experiment was terminated by removal of the medium and consecutive rinsing with 200 μL of HBSS (1% BSA). The media of both steps were combined in one fraction and represent the amount of free radioligand. Afterwards, the cells were lysed with 250 μL of 1 M aqueous NaOH for at least 10 min. After a washing step (250 μL of 1 M NaOH), both fractions, representing the amount of bound ligand, were united. Quantification of all collected fractions was accomplished in a γ-counter. PSMA-affinity determinations were carried out at least three times per ligand.
Affinities were determined using LNCaP cells (150000 cells/well) and ([^125I]I-BA)KuE (c=0.2 nM) as the radioligand (1 h, 4° C., HBSS+1% BSA). Data are expressed as mean±SD (n=3).

[2] = Octanol-water partition coefficient; assay type: physicochemical; details: 177Lu-labelled; n-octanol/PBS pH 7.4; n=6
Description: Approximately 1 MBq of the labelled tracer was dissolved in 1 mL of a 1:1 mixture (v/v) of PBS (pH 7.4) and n-octanol in a reaction vial (1.5 mL). After vigorous mixing of the suspension for 3 minutes at room temperature, the vial was centrifuged at 15000 g for 3 minutes (Biofuge 15, Heraeus Sepatech, Osterode, Germany) and 100 μL aliquots of both layers were measured in a gamma counter. The experiment was repeated at least six times.
FIG. 5 and the following table summarize log PO/W values of the synthesized radiolabeled ^177Lu-PSMA ligand compounds and ^177Lu-references (n=6).

[3] = molecular target: human serum albumin (HSA) (Homo sapiens, UniProt P02768); assay: HSA binding by high performance affinity chromatography (HiPAC); assay type: in vitro ADME; parameters: purchased Daicel, Tokyo, Japan H13H-2433; details: lutetium-complexed; Chiralpak HSA column
Description: HSA binding of the PSMA-addressing ligands was determined according to a previously published procedure via HPLC (Valko, K.; Nunhuck, S.; Bevan, C.; Abraham, M. H.; Reynolds, D. P., Fast gradient HPLC method to determine compounds binding to human serum albumin. Relationships with octanol/water and immobilized artificial membrane lipophilicity. J Pharm Sci. 2003, 92, 2236-2248). A Chiralpak HSA column (50×3 mm, 5 μm, H13H-2433, Daicel, Tokyo, Japan) was used at a constant flow rate of 0.5 mL/min at rt. Mobile phase A was a freshly prepared 50 mM aqueous solution of NH4OAc (pH 6.9) and mobile phase B was isopropanol (HPLC grade, VWR). The applied gradient for all experiments was 100% A (0 to 3 min), followed by 80% A (3 to 40 min). Prior to the experiment, the column was calibrated using nine reference substances with a HSA binding, known from literature, in the range of 13 to 99% (Valko, K.; Nunhuck, S.; Bevan, C.; Abraham, M. H.; Reynolds, D. P., J Pharm Sci. 2003, 92, 2236-2248; Yamazaki, K.; Kanaoka, M., Computational prediction of the plasma protein-binding percent of diverse pharmaceutical compounds. J Pharm Sci. 2004, 93, 1480-1494). All substances, including the examined PSMA ligands, were dissolved in a 1:1 mixture (v/v) of isopropanol and a 50 mM aqueous solution of NH4OAc (pH 6.9) with a final concentration of 0.5 mg/mL. Non-linear regression was established with the OriginPro 2016G software (Northampton, United States).
FIG. 1 is an exemplary sigmoidal plot, showing the correlation between human serum albumin (HSA) binding of selected reference substances and retention time (tR). The underlying values of HSA binding also shown in the corresponding table and were obtained from literature (Valko, K.; Nunhuck, S.; Bevan, C.; Abraham, M. H.; Reynolds, D. P., J Pharm Sci. 2003, 92, 2236-2248; Yamazaki, K.; Kanaoka, M., J Pharm Sci. 2004, 93, 1480-1494). Log tR: logarithmic value of experimentally determined retention time. Log K HSA: logarithmic value of HSA binding values.

T1 sequence (Q04609 whole entry): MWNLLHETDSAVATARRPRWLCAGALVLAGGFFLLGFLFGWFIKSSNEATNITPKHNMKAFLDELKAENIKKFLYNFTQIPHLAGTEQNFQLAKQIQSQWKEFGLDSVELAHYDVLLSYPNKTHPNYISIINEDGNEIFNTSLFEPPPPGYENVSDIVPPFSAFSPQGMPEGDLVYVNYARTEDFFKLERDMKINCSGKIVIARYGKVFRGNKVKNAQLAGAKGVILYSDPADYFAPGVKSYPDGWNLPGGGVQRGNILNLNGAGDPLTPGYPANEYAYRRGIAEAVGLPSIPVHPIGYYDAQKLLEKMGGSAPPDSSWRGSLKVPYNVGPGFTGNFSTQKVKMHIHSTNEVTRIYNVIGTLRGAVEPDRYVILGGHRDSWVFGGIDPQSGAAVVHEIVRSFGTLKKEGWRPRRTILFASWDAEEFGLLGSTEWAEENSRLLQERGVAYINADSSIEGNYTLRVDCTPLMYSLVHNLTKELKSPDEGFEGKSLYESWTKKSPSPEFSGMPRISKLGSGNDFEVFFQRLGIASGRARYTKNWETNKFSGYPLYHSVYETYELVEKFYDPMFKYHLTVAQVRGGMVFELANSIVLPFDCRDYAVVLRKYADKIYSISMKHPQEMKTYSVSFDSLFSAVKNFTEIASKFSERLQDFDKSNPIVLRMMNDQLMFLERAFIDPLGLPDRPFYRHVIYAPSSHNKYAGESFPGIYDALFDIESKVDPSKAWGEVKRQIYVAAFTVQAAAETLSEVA
human serum albumin (HSA), sequence (P02768 25-609): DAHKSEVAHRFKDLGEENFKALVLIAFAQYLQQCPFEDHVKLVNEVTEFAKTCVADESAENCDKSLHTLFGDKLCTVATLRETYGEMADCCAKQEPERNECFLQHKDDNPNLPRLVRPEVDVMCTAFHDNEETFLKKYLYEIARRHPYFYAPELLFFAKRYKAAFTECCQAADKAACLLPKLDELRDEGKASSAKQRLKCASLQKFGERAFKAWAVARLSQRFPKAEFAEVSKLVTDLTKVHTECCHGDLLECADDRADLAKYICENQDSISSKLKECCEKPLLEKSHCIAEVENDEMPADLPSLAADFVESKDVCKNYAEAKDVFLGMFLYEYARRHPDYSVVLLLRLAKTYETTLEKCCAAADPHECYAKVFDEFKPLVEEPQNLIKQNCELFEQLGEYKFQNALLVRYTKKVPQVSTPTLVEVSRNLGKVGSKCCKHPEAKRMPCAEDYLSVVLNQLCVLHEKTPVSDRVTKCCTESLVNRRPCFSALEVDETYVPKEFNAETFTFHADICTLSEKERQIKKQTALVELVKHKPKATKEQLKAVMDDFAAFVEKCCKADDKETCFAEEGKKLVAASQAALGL

Structure (SMILES) | IC50 [1] | Log PO/W [2] | HSA-binding HiPAC [3]
CC(C)(C)[Si](O)(c1ccc(C(=O)NC[C@@H](NC(=O)CC[C@@H](C(=O)O)N2CCN(CC(=O)O)CCN(CC(=O)O)CCN(CC(=O)O)CC2)C(=O)NCC(=O)N[C@@H](CCCCNC(=O)CCC(=O)NCCC[C@@H](NC(=O)CC[C@H](NC(=O)N[C@@H](CCC(=O)O)C(=O)O)C(=O)O)C(=O)O)C(=O)O)cc1)C(C)(C)C [E102-SiOH] | 8.4 ± 2.4 nM | −4.14 ± 0.08 | 95.1%
CC(C)(C)[Si](O)(c1ccc(C(=O)N[C@H](CCC(=O)NC[C@@H](NC(=O)CC[C@@H](C(=O)O)N2CCN(CC(=O)O)CCN(CC(=O)O)CCN(CC(=O)O)CC2)C(=O)NCCCCCC(=O)NCCC[C@@H](NC(=O)CC[C@H](NC(=O)N[C@@H](CCC(=O)O)C(=O)O)C(=O)O)C(=O)O)C(=O)O)cc1)C(C)(C)C [P105-SiOH] | 9.8 ± 0.4 nM | −3.94 ± 0.07 | 97.8%
CC(C)(C)[Si](O)(c1ccc(C(=O)NC[C@@H](NC(=O)CC[C@@H](C(=O)O)N2CCN(CC(=O)O)CCN(CC(=O)O)CCN(CC(=O)O)CC2)C(=O)N[C@H](CCCCNC(=O)CCC(=O)NCCC[C@@H](NC(=O)CC[C@H](NC(=O)N[C@@H](CCC(=O)O)C(=O)O)C(=O)O)C(=O)O)C(=O)O)cc1)C(C)(C)C [7.3-SiOH] | 5.9 ± 1.4 nM | −3.9 ± 0.1 | 96.4%
CC(C)(C)[Si](O)(c1ccc(C(=O)NC[C@@H](NC(=O)CC[C@@H](C(=O)O)N2CCN(CC(=O)O)CCN(CC(=O)O)CCN(CC(=O)O)CC2)C(=O)N[C@H](CO)C(=O)NCCC(=O)NCCC(=O)NCCC[C@@H](NC(=O)CC[C@H](NC(=O)N[C@@H](CCC(=O)O)C(=O)O)C(=O)O)C(=O)O)cc1)C(C)(C)C [C007-SiOH] | 7.1 ± 0.9 nM | −4.28 ± 0.09 | 86.3%
CC(C)(C)[Si](O)(c1ccc(C[N+](C)(C)CC(=O)NCCC[C@@H](NC(=O)CC[C@@H](C(=O)O)N2CCN(CC(=O)O)CCN(CC(=O)O)CCN(CC(=O)O)CC2)C(=O)NCCCCCC(=O)NCCC[C@@H](NC(=O)CC[C@H](NC(=O)N[C@@H](CCC(=O)O)C(=O)O)C(=O)O)C(=O)O)cc1)C(C)(C)C [P110-SiOH] | 42.2 ± 6.2 nM | −4.11 ± 0.07 | 31.3%
O=C(O)CC[C@H](NC(=O)N[C@@H](CCCCNC(=O)[C@H](Cc1ccc2ccccc2c1)NC(=O)[C@H]1CC[C@H](CNC(=O)CN2CCN(CC(=O)O)CCN(CC(=O)O)CCN(CC(=O)O)CC2)CC1)C(=O)O)C(=O)O [PSMA-617, reference compound] | 3.8 ± 1.7 nM | −4.1 ± 0.1 | 74.7%
CC(C)(C)[Si](F)(c1ccc(C(=O)NC[C@@H](NC(=O)CC[C@@H](C(=O)O)N2CCN(CC(=O)O)CCN(CC(=O)O)CCN(CC(=O)O)CC2)C(=O)N[C@H](CCCCNC(=O)CCC(=O)NCCC[C@@H](NC(=O)CC[C@H](NC(=O)N[C@@H](CCC(=O)O)C(=O)O)C(=O)O)C(=O)O)C(=O)O)cc1)C(C)(C)C [rhPSMA-7.3, reference compound] | 8 ± 1.6 nM | −3.8 ± 0.1 | 98.5%
CC(C)(C)[Si](F)(c1ccc(C(=O)NC[C@@H](NC(=O)CN2CCN(CC(=O)O)CCN(CC(=O)O)CCN(CC(=O)O)CC2)C(=O)N[C@H](CCCCNC(=O)CCC(=O)NCCC[C@@H](NC(=O)CC[C@H](NC(=O)N[C@@H](CCC(=O)O)C(=O)O)C(=O)O)C(=O)O)C(=O)O)cc1)C(C)(C)C [rhPSMA-10, reference compound] | 2.8 ± 0.7 nM | −3.6 ± 0.1 | 94.0%
CC(C)(C)[Si](O)(c1ccc(C(=O)NC[C@@H](NC(=O)CCCCCNC(=O)CCCNC(=O)CC[C@@H](NC(=O)CCC(NC(=O)N[C@@H](CCC(=O)O)C(=O)O)C(=O)O)C(=O)O)C(=O)NCC(=O)N[C@@H](CCCCNC(=O)CC[C@@H](C(=O)O)N2CCN(CC(=O)O)CCN(CC(=O)O)CCN(CC(=O)O)CC2)C(=O)O)cc1)C(C)(C)C (stereo partly drawn) [E104-SiOH] | 9 ± 2.2 nM | −3.77 ± 0.16 | 85.8%

— patent US20230277698A1, “SILICON-CONTAINING LIGAND COMPOUNDS” (Technische Universität München, priority 2020, published 2023)
